From the Kinase Knowledgebase extract (Sharma et al. 2016)

Target: PIK3CA (human) (UniProt P42336)
Assay: Inhibition of PIK3CA Kinase Activity

Sequence of PIK3CA (human) (P42336 whole entry, looked up): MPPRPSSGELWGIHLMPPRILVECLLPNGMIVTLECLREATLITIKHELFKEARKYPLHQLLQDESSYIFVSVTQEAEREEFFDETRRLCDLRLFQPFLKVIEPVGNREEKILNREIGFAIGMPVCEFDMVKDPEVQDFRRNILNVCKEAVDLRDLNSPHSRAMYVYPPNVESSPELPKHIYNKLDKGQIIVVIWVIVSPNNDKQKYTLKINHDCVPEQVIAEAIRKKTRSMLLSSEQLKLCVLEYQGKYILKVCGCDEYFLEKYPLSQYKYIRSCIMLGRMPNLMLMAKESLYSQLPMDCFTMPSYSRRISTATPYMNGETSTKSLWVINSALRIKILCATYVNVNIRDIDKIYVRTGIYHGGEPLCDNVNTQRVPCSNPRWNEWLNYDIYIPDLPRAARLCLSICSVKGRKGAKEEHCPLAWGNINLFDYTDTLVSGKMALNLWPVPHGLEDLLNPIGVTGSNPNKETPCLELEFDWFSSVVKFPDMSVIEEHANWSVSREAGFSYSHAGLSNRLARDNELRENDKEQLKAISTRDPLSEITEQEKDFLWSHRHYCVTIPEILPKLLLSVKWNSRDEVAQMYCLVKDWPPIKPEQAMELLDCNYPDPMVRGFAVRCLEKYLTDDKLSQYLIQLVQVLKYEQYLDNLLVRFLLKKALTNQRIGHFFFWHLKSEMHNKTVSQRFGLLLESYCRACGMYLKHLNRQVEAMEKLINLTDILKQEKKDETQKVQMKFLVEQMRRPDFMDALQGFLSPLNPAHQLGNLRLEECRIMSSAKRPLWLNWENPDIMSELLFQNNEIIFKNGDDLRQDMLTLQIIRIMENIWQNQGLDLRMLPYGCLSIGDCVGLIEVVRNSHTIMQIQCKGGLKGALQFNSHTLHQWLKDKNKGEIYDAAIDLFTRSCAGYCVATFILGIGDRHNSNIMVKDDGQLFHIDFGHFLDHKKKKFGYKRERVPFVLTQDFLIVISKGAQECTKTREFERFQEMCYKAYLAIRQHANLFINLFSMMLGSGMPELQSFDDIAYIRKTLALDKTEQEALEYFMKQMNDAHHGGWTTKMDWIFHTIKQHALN

IC50, < 1000 nM:
Nc1cnc(-c2nc(N3CCOCC3)nc3c2ncn3-c2ccc3c(c2)OCO3)cn1, Nc1cnc(-c2nc(N3CCOCC3)nc3c2ncn3-c2ccccc2)cn1, Nc1cnc(-c2nc(N3CCOCC3)nc3c2ncn3C2CCc3ccccc32)cn1 (stereo not given), Nc1cnc(-c2nc(N3CCOCC3)nc3c2ncn3C2CCN(c3ccccc3)C2)cn1 (stereo not given), Nc1cnc(-c2nc(N3CCOCC3)nc3c2ncn3C2CCN(c3ccccc3)CC2)cn1, Nc1cnc(-c2nc(N3CCOCC3)nc3c2ncn3Cc2c(F)cccc2F)cn1, CCC(C)n1c(Br)nc2c(-c3cnc(N)cn3)nc(N3CCOCC3)nc21 (stereo not given), CC1CCCCC1n1cnc2c(-c3cnc(N)cn3)nc(N3CCOCC3)nc21 (stereo not given), CC(C)(C)Cn1cnc2c(-c3cnc(N)cn3)nc(N3CCOCC3)nc21, CCC(C)n1cnc2c(-c3cnc(N)cn3)nc(N3CCOCC3)nc21 (stereo not given), CC(C)C(C)n1cnc2c(-c3cnc(N)cn3)nc(N3CCOCC3)nc21 (stereo not given), COCC(C)n1cnc2c(-c3cnc(N)cn3)nc(N3CCOCC3)nc21 (stereo not given), Nc1cnc(-c2nc(N3CCOCC3)nc3c2ncn3C2CCCC2)cn1, Nc1cnc(-c2nc(N3CCOCC3)nc3c2ncn3C2CCOC2)cn1 (stereo not given), Nc1cnc(-c2nc(N3CCOCC3)nc3c2nc(Br)n3C2CCOC2)cn1 (stereo not given), Cc1cccc(-n2cnc3c(-c4cnc(N)cn4)nc(N4CCOCC4)nc32)c1, Nc1cnc(-c2nc(N3CCOCC3)nc3[nH]cnc23)cn1, CCC(CC)n1cnc2c(-c3cnc(N)cn3)nc(N3CCOCC3)nc21, Nc1cnc(-c2nc(N3CCOCC3)nc3c2ncn3CC2CC2)cn1, Nc1cnc(-c2nc(N3CCOCC3)nc3c2ncn3C2CCC2)cn1, CC(C1CC1)n1cnc2c(-c3cnc(N)cn3)nc(N3CCOCC3)nc21 (stereo not given), CCC(C#N)n1cnc2c(-c3cnc(N)cn3)nc(N3CCOCC3)nc21 (stereo not given), Nc1cnc(-c2nc(N3CCOCC3)nc3c2ncn3C2CCc3ccccc3C2)cn1 (stereo not given), Nc1cnc(-c2nc(N3CCOCC3)nc3c2ncn3Cc2ccccc2)cn1, Nc1cnc(-c2nc(N3CCOCC3)nc3c2ncn3C2Cc3ccccc3C2)cn1
